Test results taken from patent US20060002913A1, “Use of histamine and related compounds to treat disorders affecting muscle function” (priority 2004, published 2006).

Columns and labels:
[1] = target: membrane bound non-mitochondrial oxidase of stimulated phagocytes (Homo sapiens, UniProt P04839); conditions: substrate of the oxidase that converts oxygen to superoxide; cited from earlier work
[2] = system: patient suffering from Acute Myelogenous Leukemia (AML) and fibromyalgia; conditions: given with IL-2, subcutaneously two times per day, 0.5 mg per injection, 21-day cycles repeated for 18 months with 21-day intermissions
Procedure: A patient, suffering from Acute Myelogenous Leukemia (AML) and fibromyalgia received treatment with histamine dihydrochloride and IL-2. Histamine dihydrochloride was administered subcutaneously two times per day at a dosage of 0.5 mg per injection for a period of 21 consecutive days.
The above 21-day cycle was repeated for 18 months with 21-day intermissions between cycles.

[3] = system: patient with amyotrophic lateral sclerosis; conditions: orally 1 mg/day for six months
Procedure: A patient with amyotrophic lateral sclerosis received treatment with histamine dihydrochloride. Histamine dihydrochloride was administered orally at a dosage of 1 mg/day for a period of six months.

[4] = system: subjects suffering from muscle pain exacerbated by ROS and/or inflammatory cytokines; assay: Inhibition of muscle pain, self-rated pain scale 1 to 10 (Example 3); format: in vivo, human; conditions: effective dose, after several weeks of treatment; groups of 10 subjects; vs placebo
Procedure: Subjects suffering from muscle pain exacerbated by ROS and/or inflammatory cytokines are identified. The subjects are asked to rate their pain on a scale of 1 to 10, with 1 indicating no pain or mild pain and 10 indicating severe pain. The subjects are then separated into 11 groups of 10 subjects each. […] Subjects in Group 11 are administered a placebo. After several weeks of treatment, subjects are again asked to rate their pain using the scale above.

[5] = system: individuals suffering from multiple sclerosis; conditions: orally 10, 30, 50, 100, 200 and 1,000 mg; vs placebo
Procedure: Individuals suffering from multiple sclerosis are identified. The individuals are asked to fill out a questionnaire regarding commonly experienced symptoms experienced by MS patients as well as the rate and severity of each symptom. The individuals are then separated into 7 groups of 20 individuals. […] Individuals in Group 7 are administered a placebo. Following the course of treatment, the individuals are again asked to fill out the same questionnaire.

NC(=O)C1=CN([C@@H]2O[C@H](COP(=O)(O)OP(=O)(O)OC[C@H]3O[C@@H](n4cnc5c(N)ncnc54)[C@H](O)[C@@H]3O)[C@@H](O)[C@H]2O)C=CC1 [NADH]
Km [1]: 450 µM

NC(=O)C1=CN([C@@H]2O[C@H](COP(=O)(O)OP(=O)(O)OC[C@H]3O[C@@H](n4cnc5c(N)ncnc54)[C@H](OP(=O)(O)O)[C@@H]3O)[C@@H](O)[C@H]2O)C=CC1 [NADPH]
Km [1]: 45 µM

Cl.Cl.NCCc1c[nH]cn1 [histamine dihydrochloride]
patient's symptoms (fibromyalgia muscle pain) [2]: symptoms disappeared while on treatment and returned during intermissions | progression of ALS [3]: arrested | muscle pain, self-rated on a scale of 1 to 10 [4]: reduction in muscle pain

NCCc1c[nH]cn1.O=P(O)(O)O [histamine phosphate]
muscle pain, self-rated on a scale of 1 to 10 [4]: reduction in muscle pain

NCCc1c[nH]cn1 [histamine]
muscle pain, self-rated on a scale of 1 to 10 [4]: reduction in muscle pain | rate and severity of symptoms associated with muscle damage (questionnaire) [5]: decrease in both the rate and severity of symptoms associated with muscle damage

NCCc1c[nH]c2ccc(O)cc12 [serotonin]
muscle pain, self-rated on a scale of 1 to 10 [4]: reduction in muscle pain
